Measurements reported in US5376671A, “Propenoyl-imidazole derivatives” (Bayer Aktiengesellschaft, priority 1992, dated 1994).
≈ marks a conversion by molar mass, not a printed value.

How the values were obtained:
[1] = molecular target: T1, type 2 angiotensin II receptor (AT2) (Bos taurus, UniProt G5E6F7); assay: Interaction with the type 2 angiotensin II receptor (AT2) on membrane fractions of bovine cerebellum, 125I-angiotensin II binding; conditions: bovine cerebellum membranes; 125I-angiotensin II about 0.1 nM; 60 min, 37° C.
T1 construct: membrane fractions of bovine cerebellum; purchased NEN DuPont NED-001; host or cells: bovine cerebellum membrane fractions
T1 sequence (G5E6F7 1-362): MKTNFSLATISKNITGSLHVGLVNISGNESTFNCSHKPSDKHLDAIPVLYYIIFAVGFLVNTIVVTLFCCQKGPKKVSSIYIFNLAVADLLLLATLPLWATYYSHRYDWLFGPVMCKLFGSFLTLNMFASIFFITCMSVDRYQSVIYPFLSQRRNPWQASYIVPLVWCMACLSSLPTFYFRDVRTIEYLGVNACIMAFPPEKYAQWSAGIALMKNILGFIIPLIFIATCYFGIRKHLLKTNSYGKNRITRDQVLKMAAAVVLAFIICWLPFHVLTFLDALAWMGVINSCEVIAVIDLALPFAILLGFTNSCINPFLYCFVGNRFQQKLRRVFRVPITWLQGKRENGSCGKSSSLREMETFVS
Method: Interaction of the compounds according to the invention with the type 2 angiotensin II receptor (AT2) on membrane fractions of bovine cerebellum
For the test, the AT2 receptor "Drug Discovery System" of NEN DuPont (Catalogue No. NED-001) is used. The test is carried out correspondingly using the test protocol additionally supplied. Receptor binding is carried out in a test volume of 235 μl, which in detail contains ^125 I-angiotensin II (about 0.1 nM), Test buffer (PBS, NaCl, EDTA, PMSF, DTT, DMSO) and the substances to be investigated. After an incubation of 60 min at 37° C., the unbound radioactivity of the samples is separated by means of moistened glass fibre filters (Whatman GF/C) and the bound radioactivity is measured […] in a scintillation cocktail after washing the protein with ice-cold buffer solution (0.9% strength NaCl). The analysis of the raw data was carried out using computer programs for the IC50 or Ki value determination (IC50 value: concentration at which the substance to be investigated causes a 50% inhibition of the specific binding of the radioligand: Ki value: IC50 value corrected for the radioactivity used).

[2] = tested on: isolated rabbit aorta (contraction induced by angiotensin II); assay: Inhibition of vascular contraction in isolated rabbit aorta rings in vitro, contractions induced by angiotensin II; conditions: based on the 3rd (submaximal) agonist concentration
Method: Rabbits of both sexes are stunned by a blow to the neck and bled out, or in some cases anesthetised with Nembutal (about 60-80 mg/kg i.v.) and sacrificed by opening the thorax. The thorax aorta is taken out, freed from adhering connective tissue, divided into 1.5 mm wide ring segments and individually transferred under an initial loading of about 3.5 g to 10 ml organ baths containing 95% 02 /5% CO2 -aerated Krebs-Henseleit nutrient solution temperature-controlled at 37° C. of the following composition: 119 mmol/l of NaCl: 2.5 mmol/l of CaCl2 ×2 H2 O; 1.2 mmol/l of KH2 PO4; 10 mmol/l of glucose; 4.8 mmol/l of KCl; 1.4 mmol/l of MgSO4 ×7 H2 O and 25 mmol/l of NaHCO3.
The contractions are measured isometrically by Statham UC2 cells by means of bridge amplifiers (ifd Mulheim or DSM Aalen) and digitalised and analysed by means of A/D converters (System 570, Keithley Munich). Agohist dose response curves (DRC) were plotted hourly. With each DRC, 3 or 4 individual concentrations are applied to the baths at an interval of 4 min. After completion of the DRC and subsequent washing-out cycles (16 times, in each case about 5 sec/min with the abovementioned nutrient solution), a 28-minute resting or incubation phase is added in the course of which the contractions usually reach the starting value again.
The height of the 3rd DRC in the normal case is used as a reference quantity for the evaluation of the test substance to be investigated in further passages, which is applied to the baths in the following DRCs in increasing dosage in each case at the start of the incubation time. In this way, each aorta ring is always stimulated for the whole day with the same agohist.
To calculate the IC50 (concentration at which the substance to be investigated causes a 50% inhibition), the effect is in each case based on the 3rd=submaximal agonist concentration.

[3] = tested on: smooth muscle cells from rats' aortas; assay: Inhibition of proliferation of smooth muscle cells (3H-thymidine incorporation); format: cell-based; conditions: 10^-6 M, rat aortic smooth muscle cells, 10% FCS
Method: Investigation of the inhibition of proliferation of smooth muscle cells by the compounds according to the invention
To determine the antiproliferative action of the compounds, smooth muscle cells are used that have been obtained from rats' aortas by the media explant technique [R. Ross, J. Cell. Biol. 50. 172, 1971]. The cells are innoculated into suitable culture dishes (as a rule 96-hole plates, and cultured at 37° C. for 2-3 days in medium containing added serum, 2 mM L-glutamine and 15 mM HEPES, pH 7.4, in 5% CO2. The cells are then synchronised by withdrawal of serum for 2-3 days and then stimulated into growth by serum or other factors. Test desired compounds are added simultaneously. After 16-20 hours, 1 μCi of ^3 H-thymidine is added, and after a further 4 hours, the incorporation of this substance into the TCA-precipitable DNA of the cells is determined.

[4] = molecular target: T2, angiotensin II receptor on membrane fractions of adrenal gland cortex (bovine) (Bos taurus, UniProt P25104); assay: Interaction with the angiotensin II receptor on membrane fractions of adrenal gland cortex (bovine), 3H-angiotensin II binding; conditions: 3H-angiotensin II 3-5 nM, 60 min, room temperature
T2 construct: partially purified membrane fractions of bovine AGC using radioactive angiotensin II; from tissue; host or cells: bovine adrenal gland cortex, partially purified membrane fractions
T2 sequence (P25104 1-359): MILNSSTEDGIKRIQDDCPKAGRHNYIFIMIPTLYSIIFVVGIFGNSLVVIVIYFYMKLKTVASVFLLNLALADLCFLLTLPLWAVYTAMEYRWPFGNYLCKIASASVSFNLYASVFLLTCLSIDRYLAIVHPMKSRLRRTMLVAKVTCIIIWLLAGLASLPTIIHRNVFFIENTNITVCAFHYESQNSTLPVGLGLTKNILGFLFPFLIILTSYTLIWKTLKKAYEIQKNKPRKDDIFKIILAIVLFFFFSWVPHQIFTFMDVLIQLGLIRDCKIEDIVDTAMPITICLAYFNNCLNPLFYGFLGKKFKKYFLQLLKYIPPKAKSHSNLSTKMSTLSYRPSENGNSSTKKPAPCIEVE
From the text: Interaction of the compounds according to the invention with the angiotensin II receptor on membrane fractions of adrenal gland cortex (bovine)
Bovine adrenal gland cortices (AGC) which have been freshly removed and carefully freed from gland medulla are comminuted in sucrose solution (0.32M) with the aid of an Ultra-turrax (Janke & Kunkel, Staufen I. B.) to give a coarse membrane homogenate and are partially purified to give membrane fractions in two centrifugation steps. The receptor binding investigations are carried out on partially purified membrane fractions of bovine AGC using radioactive angiotensin II in an assay volume of 0.25 ml which, in detail, contains the partially purified membranes (50-80 μg) ^3 H-angiotensin II (3-5 nM), test buffer solution (50 mM tris, pH 7.2), 5 mM MgCl2 and the substances to be investigated. After an incubation time of 60 min at room temperature, the unbound radioactivity of the samples is separated by means of moistened glass fibre filters (Whatman GF/C) and the bound radioactivity is measured […] in a scintillation cocktail after washing the protein with ice-cold buffer solution (50 mM tris/HCl, pH 7.4, 5% PEG 6000). […]

| SMILES | IC50 against contractions induced by angiotensin II [2] | Ki [4] | other results |
| --- | --- | --- | --- |
| CCCCc1nc(Cl)c(/C=C(\CC2CCCCC2)C(=O)OC)n1Cc1ccc(C(C(=O)N[C@H](CO)c2ccccc2)C2CCCC2)cc1 (stereo partly drawn) [Example 5, (E)-2-[4-{2-n-Butyl-4-chloro-5-(3-cyclohexyl-2-methoxyarbonyl-prop-1-en-yl)-1H-imidazol-1-methyl}phenyl]-2-cyclopentyl-acetic acid L-phenylglycinolamide] | – | – | inhibition at 1 µM [3]: 90% |
| CCCCc1nc(Cl)c(/C=C(\CC2CCCCC2)C(=O)O)n1Cc1ccc(C(C(=O)N[C@H](CO)c2ccccc2)C2CCCC2)cc1 (stereo partly shown) [Example 8] | – | 80 nM | – |
| CCCCc1nc(Cl)c(/C=C(\CC2CCCCC2)C(=O)O)n1Cc1ccc(C(C(=O)O)C2CCCCCC2)cc1 (stereo not shown) [Example 12] | 0.046 µg/mL (≈ 0.0808 µM) | – | – |

Second part, led by results:

| IC50 against contractions induced by angiotensin II [2] | Ki [4] | SMILES | other results |
| --- | --- | --- | --- |
| 0.063 µg/mL (≈ 0.116 µM) | – | CCCCc1nc(Cl)c(/C=C(\CC2CCCCC2)C(=O)O)n1Cc1ccc(C(C(=O)O)C2CCCC2)cc1 (racemic) [Example 4] | Ki [1]: 827 nM |
| – | 750 nM | CCCCc1nc(Cl)c(/C=C(\CC2CCCCC2)C(=O)OC)n1Cc1ccc(C(C(=O)NS(=O)(=O)c2ccc(C)cc2)C2CCCC2)cc1 (stereo not shown) [Example 6, (E)-N-4-Toluenesulphonyl-2-[4-{2-n-butyl-4-chloro-5-(3-cyclohexyl-2-methoxycarbonyl-prop-1-en-yl)-1H-imidazol-1-yl-methyl}phenyl]-2-cyclopentyl-acetamide] | – |
| 0.051 µg/mL (≈ 0.0735 µM) | – | CCCCc1nc(Cl)c(/C=C(\CC2CCCCC2)C(=O)O)n1Cc1ccc(C(C(=O)NS(=O)(=O)c2ccc(C)cc2)C2CCCC2)cc1 (stereo not shown) [Example 7] | – |
